Results reported in patent US20230348418A1, “ISOINDOLINONE COMPOUNDS” (Monte Rosa Therapeutics, Inc., priority 2021, published 2023).
Like-named read-outs stand apart in the source and are kept apart here.

Target: T1, Full length wild-type cereblon CRBN (Homo sapiens, UniProt Q96SW2)
T1 construct: Full length wild-type cereblon CRBN (80.0 nM, 10 μL) was incubated in assay buffer
Assay: Fluorescence polarization (FP) assay, cereblon binding
Method in brief: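 Full-length wild-type human CRBN (80.0 nM) was preincubated with compound for 30 min at room temperature in 20 mM HEPES pH 8.0, 150 NaCl, 0.5 mM TCEP and 0.05% Tween 20. A Cy5-type thalidomide-linked fluorescent probe was then added. The FP signal was normalized to the DMSO control to derive IC50.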

T1 sequence (Q96SW2 whole entry): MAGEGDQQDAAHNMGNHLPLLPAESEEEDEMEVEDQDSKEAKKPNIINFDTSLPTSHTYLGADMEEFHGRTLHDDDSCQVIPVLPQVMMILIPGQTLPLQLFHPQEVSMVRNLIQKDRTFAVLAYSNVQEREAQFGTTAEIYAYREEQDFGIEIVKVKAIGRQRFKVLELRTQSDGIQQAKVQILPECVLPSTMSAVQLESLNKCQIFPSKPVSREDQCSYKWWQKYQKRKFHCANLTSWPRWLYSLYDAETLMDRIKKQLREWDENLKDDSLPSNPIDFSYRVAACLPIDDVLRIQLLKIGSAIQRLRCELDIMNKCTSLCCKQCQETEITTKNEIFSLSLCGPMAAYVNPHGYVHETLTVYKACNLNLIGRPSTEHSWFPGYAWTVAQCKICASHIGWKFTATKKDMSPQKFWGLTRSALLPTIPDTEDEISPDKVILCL

IC50 (bounds stated in the text lists b2059-b2061, read-out: IC50 value): < 1700 nM | IC50 (cereblon binding, class code, read-out: rFP IC50): 1100 to 1700 nM
Structure (SMILES): Cc1ccc(NC(=O)OCc2ccc3c(c2)C(=O)N(C2CCC(=O)NC2=O)C3)cc1Cl (centres unmarked) [Compound 10]
